This note sets out measurements from patent US10550105B2 (Ribon Therapeutics Inc., priority 2018, dated 2020).

Bounds are passed on as bounds.

What is called IC50 is the concentration needed to halve the response being measured. A low value points to greater potency.

Chain of PARP7 (Q7Z3E1 whole entry): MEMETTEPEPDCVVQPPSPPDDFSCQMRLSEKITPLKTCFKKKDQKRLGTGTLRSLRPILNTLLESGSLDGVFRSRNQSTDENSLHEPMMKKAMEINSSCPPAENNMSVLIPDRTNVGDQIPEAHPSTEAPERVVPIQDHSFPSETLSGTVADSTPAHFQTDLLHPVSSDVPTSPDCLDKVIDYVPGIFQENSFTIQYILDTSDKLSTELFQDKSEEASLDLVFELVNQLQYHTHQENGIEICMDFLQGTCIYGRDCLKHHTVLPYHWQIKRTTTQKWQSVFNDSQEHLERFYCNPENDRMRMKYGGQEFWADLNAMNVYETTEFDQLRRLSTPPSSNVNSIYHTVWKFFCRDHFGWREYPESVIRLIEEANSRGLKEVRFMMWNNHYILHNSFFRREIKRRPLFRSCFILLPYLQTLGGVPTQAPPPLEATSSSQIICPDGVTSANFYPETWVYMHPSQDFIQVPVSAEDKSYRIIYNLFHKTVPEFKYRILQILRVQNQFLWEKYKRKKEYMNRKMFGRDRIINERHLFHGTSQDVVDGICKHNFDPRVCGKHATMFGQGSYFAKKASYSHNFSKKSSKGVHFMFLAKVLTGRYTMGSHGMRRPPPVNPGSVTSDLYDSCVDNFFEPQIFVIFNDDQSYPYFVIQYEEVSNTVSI

This assay concerns the target PARP7 (Homo sapiens (Human), UniProt Q7Z3E1). Briefly: Enzymatic assay for inhibition of PARP7: TR-FRET displacement of biotinylated Probe A from the TIPARP active site. The format is binding. The conditions noted are these: Table A-1. An outline of the steps: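 Titrated compounds compete with the biotinylated probe; after an additional 30 min incubation at 25° C, time-delayed fluorescence (90 μs) is measured. Inhibition curves use a Hill coefficient that normally floats but may be held at 1.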
Background: Time-resolved FRET reads energy transfer from a long-lived donor to a nearby acceptor.
In turn, `O=c1[nH]ncc(N2Cc3cccc(OC4CCN(C(c5ccccc5)c5ccccc5)CC4)c3C2)c1C(F)(F)F` [Example 27, 5-(4-[[1-(diphenylmethyl)piperidin-4-yl]oxy]-2,3-dihydro-1H-isoindol-2-yl)-4-(trifluoromethyl)-2,3-dihydropyridazin-3-one] had an IC50 of 100 to 1000 nM.

Molecule `O=c1[nH]ncc(N2Cc3ccc(OC4CCN(C(c5ccccc5)c5ccccc5)CC4)cc3C2)c1C(F)(F)F` [Example 28, 5-(5-[[1-(diphenylmethyl)piperidin-4-yl]oxy]-2,3-dihydro-1H-isoindol-2-yl)-4-(trifluoromethyl)-2,3-dihydropyridazin-3-one] returned a concentration for half-maximal inhibition (IC50) of less than 100 nM.

Consider `CN(CCOc1cccc(C(=O)N2CCN(c3ccc(C#N)cn3)CC2)c1)c1cn[nH]c(=O)c1C(F)(F)F` [Example 29, 6-(4-[[3-(2-[methyl[6-oxo-5-(trifluoromethyl)-1,6-dihydropyridazin-4-yl]amino]ethoxy)phenyl]carbonyl]piperazin-1-yl)pyridine-3-carbonitrile], for which the IC50 was less than 100 nM.

Take `N#Cc1ccc(N2CCN(C(=O)c3cccc(OC[C@H]4CCCN4c4cn[nH]c(=O)c4C(F)(F)F)c3)CC2)nc1` [Example 31, 6-[4-[(3-[[(2R)-1-[6-oxo-5-(trifluoromethyl)-1,6-dihydropyridazin-4-yl]pyrrolidin-2-yl]methoxy]phenyl)carbonyl]piperazin-1-yl]pyridine-3-carbonitrile]: the IC50 is no less than 1000 nM.

The molecule `N#Cc1ccc(N2CCN(C(=O)c3cccc(OC[C@@H]4CCCN4c4cn[nH]c(=O)c4C(F)(F)F)c3)CC2)nc1` [Example 32, 6-[4-[(3-[[(2S)-1-[6-Oxo-5-(trifluoromethyl)-1,6-dihydropyridazin-4-yl]pyrrolidin-2-yl]methoxy]phenyl)carbonyl]piperazin-1-yl]pyridine-3-carbonitrile] yielded an IC50 of less than 100 nM.

In the case of `N#Cc1ccc(N2CCN(C(=O)c3cccc(OC[C@@H]4CCCN4c4cn[nH]c(=O)c4C(F)(F)F)c3)C(CO)C2)nc1` (stereo partly drawn) [Example 33], the 50% inhibitory concentration (IC50) is less than 100 nM.

`N#Cc1ccc(N2CCN(C(=O)c3cccc(OC[C@@H]4CCCN4c4cn[nH]c(=O)c4C(F)(F)F)c3)CC2=O)nc1` [Example 34, 6-[2-oxo-4-[(3-[[(2S)-1-[6-oxo-5-(trifluoromethyl)-1,6-dihydropyridazin-4-yl]pyrrolidin-2-yl]methoxy]phenyl)carbonyl]piperazin-1-yl]pyridine-3-carbonitrile] gave an IC50 of less than 100 nM.

`CC[C@@H](COCCC(=O)N1CCN(c2ncc(C(F)(F)F)cn2)CC1)Oc1cn[nH]c(=O)c1C(F)(F)F` [Example 37, 5-[[(2S)-1-(3-Oxo-3-[4-[5-(trifluoromethyl)pyrimidin-2-yl]piperazin-1-yl]propoxy)butan-2-yl]oxy]-4-(trifluoromethyl)-2,3-dihydropyridazin-3-one] yielded an IC50 of less than 100 nM.

Regarding `N#Cc1ccc(N2CCN(C(=O)c3ccnc(OC[C@H]4c5ccccc5CN4c4cn[nH]c(=O)c4C(F)(F)F)n3)CC2)nc1` [Example 38 Isomer B, 6-[4-[(2-[[(1R)-2-[6-Oxo-5-(trifluoromethyl)-1,6-dihydropyridazin-4-yl]-2,3-dihydro-1H-isoindol-1-yl]methoxy]pyrimidin-4-yl)carbonyl]piperazin-1-yl]pyridine-3-carbonitrile], the IC50 is less than 100 nM.

In turn, `N#Cc1ccc(N2CCN(C(=O)c3cccc(OCC4CCCCN4c4cn[nH]c(=O)c4C(F)(F)F)c3)CC2)nc1` (stereo not drawn) [Example 40, 6-(4-[[3-([1-[6-oxo-5-(trifluoromethyl)-1,6-dihydropyridazin-4-yl]piperidin-2-yl]methoxy)phenyl]carbonyl]piperazin-1-yl)pyridine-3-carbonitrile] showed an IC50 of 100 to 1000 nM.

For `N#Cc1ccc(N2CCN(C(=O)c3cccc(OCCNc4cn[nH]c(=O)c4C(F)(F)F)c3)CC2)nc1` [Example 41, 6-(4-[[3-(2-[[6-oxo-5-(trifluoromethyl)-1,6-dihydropyridazin-4-yl]amino]ethoxy)phenyl]carbonyl]piperazin-1-yl)pyridine-3-carbonitrile], the IC50 was less than 100 nM.

As for `N#Cc1ccc(N2CCN(C(=O)c3cccc(OCCOc4cn[nH]c(=O)c4C(F)(F)F)c3)CC2)nc1` [Example 42, 6-(4-[[3-(2-[[6-oxo-5-(trifluoromethyl)-1,6-dihydropyridazin-4-yl]oxy]ethoxy)phenyl]carbonyl]piperazin-1-yl)pyridine-3-carbonitrile], the 50% inhibitory concentration (IC50) is less than 100 nM.

`N#Cc1ccc(N2CCN(C(=O)c3ccc(OCCOc4cccc5c4CN(c4cn[nH]c(=O)c4C(F)(F)F)C5)cc3)CC2)nc1` [Example 43, 6-[4-([4-[2-([2-[6-oxo-5-(trifluoromethyl)-1,6-dihydropyridazin-4-yl]-2,3-dihydro-1H-isoindol-4-yl]oxy)ethoxy]phenyl]carbonyl)piperazin-1-yl]pyridine-3-carbonitrile] had an IC50 of less than 100 nM.

Regarding `O=c1[nH]ncc(N2Cc3cc(F)c(OCC4CCCNC4)cc3C2)c1C(F)(F)F` (stereo not drawn) [Example 44, 5-[5-fluoro-6-(piperidin-3-ylmethoxy)-2,3-dihydro-1H-isoindol-2-yl]-4-(trifluoromethyl)-2,3-dihydropyridazin-3-one], the IC50 is less than 100 nM.

Consider `CC(=O)N1CCCC(COc2cc3c(cc2F)CN(c2cn[nH]c(=O)c2C(F)(F)F)C3)C1` (stereo not drawn) [Example 45, 5-[5-[(1-acetylpiperidin-3-yl)methoxy]-6-fluoro-2,3-dihydro-1H-isoindol-2-yl]-4-(trifluoromethyl)-2,3-dihydropyridazin-3-one], for which the IC50 was less than 100 nM.

Molecule `N#Cc1ccc(N2CCN(C(=O)c3nccc(OCC4c5ccccc5CN4c4cn[nH]c(=O)c4C(F)(F)F)n3)CC2)nc1` (stereo not drawn) [Example 46, 6-(4-[[4-([2-[6-oxo-5-(trifluoromethyl)-1,6-dihydropyridazin-4-yl]-2,3-dihydro-1H-isoindol-1-yl]methoxy)pyrimidin-2-yl]carbonyl]piperazin-1-yl)pyridine-3-carbonitrile] displayed an IC50 of less than 100 nM.

Molecule `N#Cc1ccc(OC2CCC(NC(=O)COC[C@@H]3CCCN3c3cn[nH]c(=O)c3C(F)(F)F)CC2)nc1` (stereo partly drawn) [Example 47, N-[4-[(5-cyanopyridin-2-yl)oxy]cyclohexyl]-2-[[(2S)-1-[6-oxo-5-(trifluoromethyl)-1,6-dihydropyridazin-4-yl]pyrrolidin-2-yl]methoxy]acetamide] returned an IC50 of less than 100 nM.

As for `O=c1[nH]ncc(N2Cc3cc(F)c(OCC4CCCN4)cc3C2)c1C(F)(F)F` (stereo not drawn) [Example 48, 5-[5-fluoro-6-(pyrrolidin-2-ylmethoxy)-2,3-dihydro-1H-isoindol-2-yl]-4-(trifluoromethyl)-2,3-dihydropyridazin-3-one], the half-inhibitory concentration (IC50) is less than 100 nM.

Molecule `CN1CCCC1COc1cc2c(cc1F)CN(c1cn[nH]c(=O)c1C(F)(F)F)C2` (stereo not drawn) [Example 49, 5-[5-fluoro-6-[(1-methylpyrrolidin-2-yl)methoxy]-2,3-dihydro-1H-isoindol-2-yl]-4-(trifluoromethyl)-2,3-dihydropyridazin-3-one; formic acid] gave an IC50 of less than 100 nM.

As to `CC(=O)N1CCCC1COc1cc2c(cc1F)CN(c1cn[nH]c(=O)c1C(F)(F)F)C2` (stereo not drawn) [Example 50, 5-[5-[(1-acetylpyrrolidin-2-yl)methoxy]-6-fluoro-2,3-dihydro-1H-isoindol-2-yl]-4-(trifluoromethyl)-2,3-dihydropyridazin-3-one], the IC50 was less than 100 nM.

In turn, `N#Cc1ccc(N2CCN(C(=O)c3cccc(OC[C@@H]4C[C@H](O)CN4c4cn[nH]c(=O)c4C(F)(F)F)c3)CC2)nc1` [Example 51] returned an IC50 of less than 100 nM.
